Patent US20030170221A1, “STREPTOMYCES MEGASPORUS SD5, PROCESS FOR THE ISOLATION THEREOF, NOVEL FIBRINOLYTIC ENZYME PREPARED THEREFROM, PROCESS FOR THE PRODUCTION OF SAID ENZYME AND METHOD OF TREATMENT OF THROMBOLYTIC DISORDERS USING SAID ENZYME” (MAHARASHTRA ASSOC. FOR THE CULTIVATION OF SCIENCE, priority 2001, published 2003)
Like-named read-outs stand apart in the source and are kept apart here. Square brackets hold non-standard residues; d marks the D form. Peptide text beside a SMILES is read from it. * marks the point of attachment. Sta = CC(C)C[C@H](N)[C@@H](O)CC(=O)O; Isovaleryl = CC(C)CC(=O)*

How the values were obtained:
[1] = system: fibrinolytic enzyme produced by S. megasporus SD5; assay: Effect of protease inhibitors on fibrinolytic activity of the crude enzyme (FIG. 5); assay type: biochemical, Streptomyces megasporus SD5
Text: (§1) 1.Control, 2—Antipain—3, Bestatin, —4, Chymostatin, —5. E-64, 6—Leupeptin, 7—Pepstatin, 8 Phosphoramidon, 9—pefabloc, 10—EDTA, 11—EDTA+Ca^++, 12—Aprotinin, 13—Trypsin inhibitor, 14—β-mercaptoethanol, 15—TPCK, 16—1, 10 pheuanthroline, 17—PMSF.
To determine the class to which the enzyme belonged the effect of different protease inhibitors were studied in detail.

actinokinase = assay: Effects of inhibitors and metal ions on activity of the purified enzyme; assay type: biochemical, Streptomyces megasporus SD5
Method: (§2) Different protease inhibitors were separately dissolved in distilled water/methanol/dimethyl sulphoxide as per manufacturers protocol, so that final concentration of each inhibitor was 1 mM. The enzyme (50 μl) was mixed with same amount (50 μl) of inhibitor and incubate at ambient temperature for 30 min. The residual activity was measured at 55° C. as above using universal protease substrate and compared with that of the control without any inhibitor and the inhibition was determined as percentage taking control as 100% positive.

[2] = system: fibrinolytic enzyme (actinokinase) produced by Streptomyces megasporus SD5, ~35 kDa, wild type; assay: Effects of various inhibitors on fibrinolytic activity of the enzyme (FIG. 5); assay type: biochemical; details: result in words
Method: as §1
The fibrinolytic (thrombolytic) activity was assayed on solid and liquid media (Harverkate & Trass 1974, Lottenberg et al. 1981). The reaction mixture (1 ml) comprised of chromogenic substrates, such as benzoyl-β-alanyl-glycyl-arginine-ρ nitroanilide (20 μmol 1^−1) in 10 mM sodium phosphate buffer, pH 8.0 and incubated at 55° C. for 30 min after addition of 1 ml, enzyme solution containing 0.5 μg protein ml^−1, cooled to room temperature and the liberation of ρ-nitroanilide was measured by increased absorbance recorded at 405 nm using a UV-VIS Spectrophotometer (DU 8B, Beckman, Sweden). One unit of the enzyme was defined as the amount of enzyme that catalysed the formation of 1 ng of ρ-nitroanilide min^−1. The caseinolytic activity was determined by Dunn (1989) in terms of μmol tyrosine min^−1. Protein was determined using Folin Ciocalteau phenol reagent. All the results of growth and assays are the means of three separate experiments.
To determine the class to which the enzyme belonged the effect of different protease inhibitors were studied in detail. As the fibrinolytic enzyme could be used as a therapeutic agent for different types of thrombosis so in vitro clot lysis was studied with both natural and synthetic clots.

[3] = system: actinokinase, fibrinolytic enzyme from Streptomyces megasporus SD5, 35 kDa serine protease, wild type; details: 1 mM inhibitor, ambient temperature 30 min; residual activity at 55° C., universal protease substrate
Method: as §2

[4] = system: actinokinase, fibrinolytic enzyme from Streptomyces megasporus SD5, 35 kDa serine protease, wild type; assay: Michaelis constant with Chromozyme U as substrate, Lineweaver-Burk plot; assay type: biochemical; details: in absence of plasminogen
Method: The thrombolytic activity was measured on standard fibrin plate using the method of Haverkate-Trass (1974) as mentioned previously and compared with available thrombolytic enzyme, urokinase, Each sample (20 μl) was put on the fibrin clot layer and incubated at both 55° C. and 37° C. for 8 h. The zone of clear areas for standard urokinase and the enzyme of the invention was measured and thrombolytic activities of both enzymes were expressed in terms of Plough units. Amidolytic activity was determined using chromogenic substrates and one unit of activity is defined as the amount of enzyme, which released […] of pNA min^−1. Amydolytic activity in liquid medium was determined using the method by Lottenberg et al (1981). Caseinolytic activity was assayed by the procedure described by Pokorny et al (1979). Protein concentration was estimated by a modification of the Lowry's method (1951).
Substrate specificity of the enzyme was assessed at 405 nm by using various synthetic peptide substrates, (20 μM) tagged with ρ-nitranilide acetate and resorufin, in the reaction mixture. The Michaelis constant (Km) was determined using Chromozyme U as substrate using line weaver Burk plot method (Jayaraman 1985).

[5] = system: Streptomyces megasporus SD5; assay: Antibiotic sensitivity of the strain; assay type: cell-based; details: concentration of 50 μg ml^−1
[6] = Pharmacological properties of thrombolytic agents in acute myocardial infarctions; details: for Efficacy (<4 h): acute myocardial infarctions
[7] = reportedly; cited from earlier work
fibrin = details: prior art; cited from earlier work
[8] = cited from earlier work
[9] = in vivo
[10] = Table III, available enzymes; cited from earlier work
[11] = inhibitor 1 mM, purified enzyme, universal protease substrate, 55° C.

| Compound | effect of inhibitor on fibrinolytic activity of the enzyme ([1]; crude enzyme, FIG. 5) | effect of inhibitor on enzymatic activity (actinokinase; [11]) | also measured |
| --- | --- | --- | --- |
| c1cnc2c(c1)ccc1cccnc12 [1,10 phenanthroline] | No change | No change in activity | effect of inhibitor on fibrinolytic activity [2]: No change in the activity |
| CC(C)C[C@H](NC(=O)[C@@H](O)[C@H](N)Cc1ccccc1)C(=O)O [Bestatin] | strongly repressed | highly repressed | – |
| CC(C)C[C@H](NC(=O)[C@@H](NC(=O)N[C@@H](Cc1ccccc1)C(=O)O)[C@@H]1CCN=C(N)N1)C(=O)N[C@H](C=O)Cc1ccccc1 [Chymostatin] | strongly repressed | highly repressed | – |
| CC(C)C[C@H](NC(=O)[C@H]1O[C@@H]1C(=O)O)C(=O)NCCCCN=C(N)N [E-64] | – | Insignificant inhibition | – |
| O=C(O)CN(CCN(CC(=O)O)CC(=O)O)CC(=O)O [EDTA] | – | – | effect of inhibitor on fibrinolytic activity of the enzyme [1]: inhibitory effect; effect of inhibitor on enzymatic activity [3]: inhibitory effect; effect of inhibitor on enzymatic activity (actinokinase): inhibitory effect; effect of inhibitor on fibrinolytic activity [2]: inhibitory effect |
| CC(=O)N[C@@H](CC(C)C)C(=O)N[C@@H](CC(C)C)C(=O)N[C@H](C=O)CCCNC(=N)N [Leupeptin] | moderately sensitive | moderately sensitive | – |
| O=S(=O)(F)Cc1ccccc1 [PMSF] | strongly repressed | highly repressed | – |
| Cl.NCCc1ccc(S(=O)(=O)F)cc1 [Pefabloc, pefabloc] | strongly repressed | highly repressed | – |
| CC(C)CC(=O)N[C@H](C(=O)N[C@H](C(=O)N[C@@H](CC(C)C)[C@@H](O)CC(=O)N[C@@H](C)C(=O)N[C@@H](CC(C)C)[C@@H](O)CC(=O)O)C(C)C)C(C)C [Pepstatin] (Isovaleryl-VV[Sta]A[Sta]-OH) | – | Insignificant inhibition | – |
| CC(C)C[C@H](NP(=O)(O)O[C@@H]1O[C@@H](C)[C@H](O)[C@@H](O)[C@H]1O)C(=O)N[C@@H](Cc1c[nH]c2ccccc12)C(=O)O [Phosphoramidon] | No change | No change in activity | – |
| Cc1ccc(S(=O)(=O)N[C@@H](Cc2ccccc2)C(=O)CCl)cc1 [TPCK] | moderately sensitive | moderately sensitive | – |
| N=C(N)NCCC[C@H](NC(=O)CNC(=O)CCNC(=O)c1ccccc1)C(=O)Nc1ccc([N+](=O)[O-])cc1 [chromozyme U, Benzoyl-β-ala-gly-arg-4-ρNA] (HELM PEPTIDE1{[O=C(c1ccccc1)[*:2]].[bAla].G.R.[O=[N+]([O-])c1ccc(N[*:1])cc1]}$$$$V2.0) | – | – | Km [4]: 2.2 µM |
| CCC[C@@H]1C[C@@H](C(=O)N[C@@H]([C@H]2O[C@H](SC)[C@H](O)[C@@H](O)[C@H]2O)[C@@H](C)O)N(C)C1 [lincomycin] | – | – | inhibition of the microorganism [5]: inhibited |
| CC(C)C[C@H](NP(=O)(O)O[C@@H]1O[C@@H](C)[C@H](O)[C@@H](O)[C@H]1O)C(=O)N[C@@H](Cc1c[nH]c2ccccc12)C(=O)O [phosphoramidin] | – | – | effect of inhibitor on fibrinolytic activity [2]: No change in the activity |
| C=C(NC(=O)C(=C)NC(=O)c1csc(C2=N[C@@H]3c4csc(n4)[C@H]4NC(=O)c5csc(n5)[C@H]([C@](C)(O)[C@@H](C)O)NC(=O)[C@H]5CSC(=N5)/C(=C/C)NC(=O)[C@H]([C@@H](C)O)NC(=O)c5csc(n5)[C@]3(CC2)NC(=O)[C@H](C)NC(=O)C(=C)NC(=O)[C@H](C)NC(=O)[C@H]([C@@H](C)CC)N[C@@H]2C=Cc3c([C@H](C)O)cc(nc3[C@H]2O)C(=O)O[C@@H]4C)n1)C(N)=O [thiostrepton] | – | – | inhibition of the microorganism [5]: inhibited |
| OCCS [β-mercaptoethanol] | – | Insignificant inhibition | – |
| Aprotinin | strongly repressed | highly repressed | – |
| Streptokinase: prior art plasminogen activator | – | – | Efficacy (<4 h) [6]: 65; Adverse effects ([6]; in vivo): Haemorragic; Half life ([6]; in vivo): 23 min; failure rate as thrombolytic agent [7]: ≤ 25%; affinity for fibrin (fibrin): do not show any affinity |
| T-PA: tissue plasmiogen activators | – | – | Efficacy (<4 h) ([8]; acute myocardial infarctions, data from the literature): 70; Half life ([8]; in vivo): 5 min |
| Urokinase | – | – | Efficacy (<4 h) [6]: 65; Half life [9]: 16 min; affinity for fibrin (fibrin): do not show any affinity; Optimum Temperature [10]: 37 °C; Optimum pH [10]: 7.5 |
